The values that follow are results of earlier work, collected in patent US20110045130A1, “BIOACTIVE PEPTIDE PRODUCTION” (priority 2007, published 2011).

Data set [1] has as its target angiotensin converting enzyme (ACE) (Homo sapiens, UniProt P12821). As to conditions: in vitro effect on ACE activity; relatively low IC50 values.
Data set [2] has as its system spontaneously hypertensive rats. The note with it: tripeptides derived from lactic acid bacteria fermented milk.

Sequence of angiotensin converting enzyme (ACE) (P12821 30-1306, species assumed): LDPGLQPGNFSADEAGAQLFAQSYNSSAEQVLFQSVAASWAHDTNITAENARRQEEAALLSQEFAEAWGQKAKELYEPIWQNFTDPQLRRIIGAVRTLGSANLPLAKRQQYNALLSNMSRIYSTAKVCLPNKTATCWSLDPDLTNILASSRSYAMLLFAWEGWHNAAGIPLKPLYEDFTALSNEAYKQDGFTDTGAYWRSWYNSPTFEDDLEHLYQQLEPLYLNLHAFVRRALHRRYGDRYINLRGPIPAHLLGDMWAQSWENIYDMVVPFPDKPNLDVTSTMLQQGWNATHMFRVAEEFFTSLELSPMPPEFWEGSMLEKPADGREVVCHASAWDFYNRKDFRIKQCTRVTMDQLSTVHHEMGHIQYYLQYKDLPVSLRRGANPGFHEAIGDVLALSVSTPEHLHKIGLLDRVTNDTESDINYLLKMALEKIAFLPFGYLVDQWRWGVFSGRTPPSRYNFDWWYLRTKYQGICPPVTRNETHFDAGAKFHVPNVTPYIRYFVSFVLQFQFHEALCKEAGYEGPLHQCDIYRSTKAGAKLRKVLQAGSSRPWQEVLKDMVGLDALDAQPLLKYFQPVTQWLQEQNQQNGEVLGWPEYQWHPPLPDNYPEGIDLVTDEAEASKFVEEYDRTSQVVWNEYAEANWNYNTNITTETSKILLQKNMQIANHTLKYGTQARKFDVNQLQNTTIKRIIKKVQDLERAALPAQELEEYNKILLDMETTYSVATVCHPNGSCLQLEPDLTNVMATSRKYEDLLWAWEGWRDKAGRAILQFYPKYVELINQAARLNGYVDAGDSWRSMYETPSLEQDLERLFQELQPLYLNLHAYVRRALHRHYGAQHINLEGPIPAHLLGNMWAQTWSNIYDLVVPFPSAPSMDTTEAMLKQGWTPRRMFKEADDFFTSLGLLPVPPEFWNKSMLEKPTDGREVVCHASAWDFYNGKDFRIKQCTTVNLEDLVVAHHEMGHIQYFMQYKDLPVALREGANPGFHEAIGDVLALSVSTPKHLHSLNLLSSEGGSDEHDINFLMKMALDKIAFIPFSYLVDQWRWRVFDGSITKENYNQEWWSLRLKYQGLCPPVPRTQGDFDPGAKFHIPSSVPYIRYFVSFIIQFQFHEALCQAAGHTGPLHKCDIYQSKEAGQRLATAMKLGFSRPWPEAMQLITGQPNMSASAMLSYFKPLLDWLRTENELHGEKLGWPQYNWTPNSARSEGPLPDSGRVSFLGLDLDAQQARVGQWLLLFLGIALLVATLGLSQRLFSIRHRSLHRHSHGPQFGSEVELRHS

Regarding Ile-Pro-Pro [IPP], the ACE inhibiting activity entry in data set [1] is on record as “Strong ACE inhibiting activities”. Further, the antihypertensive effects entry in data set [2] is on record as “confirmed”.

Turning to Leu-Pro-Pro [LPP], the ACE inhibiting activity entry in data set [1] is given as “Strong ACE inhibiting activities”.

As to Val-Pro-Pro [VPP], the ACE inhibiting activity result in data set [1] was “Strong ACE inhibiting activities”. Also, in data set [2], the antihypertensive effects result was “confirmed”.
